{
  "source": "patent US6979545B2",
  "about": "“Method for determining chemical reactivity” (Pharmacia & Upjohn Company, priority 2000, dated 2005)",
  "key": {"[1]": {"assay": "GSH reactivity screen (mercury orange fluorescence, 96-well)", "type": "physicochemical", "conditions": "for potential reactivity using the GSH reactivity screen: residual GSH by HgO fluorescence, electrophile criterion e.g. <20% GSH remaining", "method": "The test compounds as listed in Table 2 to be screened are dissolved in dimethyl sulfoxide (DMSO) to a final concentration of 10 mM, and 2 μL is transferred to the wells of a polypropylene 96-well microtiter plate. […] Mercury orange (HgO) stock solution (470 μM) is prepared in acetone and stored at 4° C. […] A 48 μL aliquot of the GSH working solution is pipetted into the 96-well tray containing the test compounds to yield a final concentration of 200 μM GSH. The reaction of the test compound with the GSH is allowed to proceed for 1 h at room temperature after which time an aliquot of HgO is added to each reaction well to yield a final concentration of 50 μM GSH/HgO. […] Assay linearity is investigated by preparing a GSH standard curve in the concentration range 0 to 50 μM (final concentration). Routine sample analysis is achieved using a Biomek 2000 biorobotic system configured with six 96-well plates and 2 reagent reservoirs.\nCompounds are then identified as elelctrophiles based upon a predetermined criteria of GSH consumption (e.g., <20% GSH remaining)."}, "[2]": {"assay": "fluorescein-5-maleimide (FM)/GSH competition fluorescence test", "type": "physicochemical", "conditions": "for level of fluorescence, visual observation of the cuvette: compared to a standard without the compound for screening; for electrophilic properties (conclusion): from FM/GSH fluorescence", "method": "A small aliquot of fluroescein-5-maleimide (FM) in dimethyl sulfoxide (DMSO) is added to a fluorometric cuvette containing 2 ml of phosphate buffered saline at a pH of 7.40. A test compound for screening in DMSO is added to the cuvette, as is a small aliquot of GSH solution. The mixture is exposed to light at 490 nm and emission is observed through a 530 nm bandpass filter. The color of the resulting mixture is observed and the amount of fluorescence is measured."}, "[3]": {"conditions": "test compound with 200 μM GSH, 1 h at room temperature, no metabolic activation, no glutathione transferase"}, "[4]": {"conditions": "phosphate buffered saline pH 7.40, excitation 490 nm, emission 530 nm"}, "[5]": {"conditions": "test compound with 200 μM GSH, 1 h at room temperature"}},
  "note": "Read-outs that look alike come from different tables or passages of the source.",
  "data": [
    {"smiles": "COc1ccc(Cl)c([N+](=O)[O-])c1", "note": "[4-chloro-3-nitroanisole]", "values": [
      {"measurement": "result in the GSH screen (in words)", "setting": "[1]; [3]", "result": "non-reactive"}
    ]},
    {"smiles": "CC(=O)NC1=C(Cl)C(=O)c2ccccc2C1=O", "values": [
      {"measurement": "level of fluorescence, visual observation of the cuvette", "setting": "[2]", "result": "appreciably reduced"},
      {"measurement": "electrophilic properties (conclusion)", "setting": "[2]", "result": "having electrophilic properties"},
      {"measurement": "reactivity of this compound toward GSH as compared to the FM standard (in words)", "setting": "[2]; [4]", "result": "slightly greater"}
    ]},
    {"smiles": "c1ccccc1", "note": "[Benzene]", "values": [
      {"measurement": "result in the GSH screen (in words)", "setting": "[1]; [3]", "result": "non-reactive"}
    ]},
    {"smiles": "N#Cc1ccc(Cl)c([N+](=O)[O-])c1", "note": "[4-chloro-3-nitrobenzonitrile]", "values": [
      {"measurement": "result in the GSH screen (in words)", "setting": "[1]; [3]", "result": "non-reactive"}
    ]},
    {"smiles": "O=C1C=CC(=O)N1c1cccc(C(F)(F)F)c1", "values": [
      {"measurement": "level of fluorescence, visual observation of the cuvette", "setting": "[2]", "result": "does not appreciably change"},
      {"measurement": "electrophilic properties (conclusion)", "setting": "[2]", "result": "not having electrophilic properties"},
      {"measurement": "reactivity of this compound toward GSH as compared to the FM standard", "setting": "[2]; [4]", "result": 2.95, "unit": "times less"}
    ]},
    {"smiles": "O=[N+]([O-])c1ccc(Cl)cc1", "note": "[1-Chloro-4-nitrobenzene]", "values": [
      {"measurement": "result in the GSH screen (in words)", "setting": "[1]", "result": "non-reactive"}
    ]},
    {"smiles": "COc1ccc(O)c(C(C)(C)C)c1", "note": "[Butylated hydroxyanisole]", "values": [
      {"measurement": "result in the GSH screen (in words)", "setting": "[1]; [3]", "result": "non-reactive"}
    ]},
    {"smiles": "CC/C(=C(\\c1ccccc1)c1ccc(OCCN(C)C)cc1)c1ccccc1", "note": "[Tamoxifen]", "values": [
      {"measurement": "result in the GSH screen (in words)", "setting": "[1]; [3]", "result": "non-reactive"}
    ]},
    {"smiles": "CC(=O)Nc1ccc(O)cc1", "note": "[acetaminophen]", "values": [
      {"measurement": "result in the GSH screen (in words)", "setting": "[1]; [3]", "result": "non-reactive"}
    ]},
    {"smiles": "O=[N+]([O-])c1cc(O)ccc1Cl", "note": "[4-chloro-3-nitrophenol]", "values": [
      {"measurement": "result in the GSH screen (in words)", "setting": "[1]; [3]", "result": "non-reactive"}
    ]},
    {"smiles": "O=C(O)Cc1ccccc1Nc1c(Cl)cccc1Cl", "note": "[Diclofenac]", "values": [
      {"measurement": "result in the GSH screen (in words)", "setting": "[1]; [3]", "result": "non-reactive"}
    ]},
    {"smiles": "Nc1ccc(Cl)c([N+](=O)[O-])c1", "note": "[4-chloro-3-nitroaniline]", "values": [
      {"measurement": "result in the GSH screen (in words)", "setting": "[1]; [3]", "result": "non-reactive"}
    ]},
    {"smiles": "O=[N+]([O-])c1csc(Br)n1", "note": "[2-Bromo-4-nitrothiazole]", "values": [
      {"measurement": "potential reactivity using the GSH reactivity screen", "setting": "[1]; [5]", "result": "R"},
      {"measurement": "result in the GSH screen (in words)", "setting": "[1]; [3]", "result": "reactive"}
    ]},
    {"smiles": "O=C1NC(=O)C(c2ccccc2)(c2ccccc2)N1", "note": "[Phenytoin]", "values": [
      {"measurement": "result in the GSH screen (in words)", "setting": "[1]; [3]", "result": "non-reactive"}
    ]},
    {"smiles": "O=[N+]([O-])c1ccc(Cl)c([N+](=O)[O-])c1", "note": "[1-chloro-2,4-dinitrobenzene]", "values": [
      {"measurement": "result in the GSH screen (in words)", "setting": "[1]; [3]", "result": "non-reactive"}
    ]},
    {"smiles": "O=C(CCCN1CCC(O)(c2ccc(Cl)cc2)CC1)c1ccc(F)cc1", "note": "[Haloperidol]", "values": [
      {"measurement": "result in the GSH screen (in words)", "setting": "[1]; [3]", "result": "non-reactive"}
    ]},
    {"smiles": "O=C1C=C(c2ccccc2)C(=O)N1", "note": "[Phenylmaleimide]", "values": [
      {"measurement": "potential reactivity using the GSH reactivity screen", "setting": "[1]; [5]", "result": "R"},
      {"measurement": "result in the GSH screen (in words)", "setting": "[1]; [3]", "result": "reactive"}
    ]},
    {"smiles": "N#Cc1ccc(Cl)cc1", "note": "[4-Chlorobenzonitrile]", "values": [
      {"measurement": "result in the GSH screen (in words)", "setting": "[1]", "result": "non-reactive"}
    ]},
    {"smiles": "Cc1cc(C(C)(C)C)c(O)c(C(C)(C)C)c1", "note": "[Butylated hydroxytoluene]", "values": [
      {"measurement": "result in the GSH screen (in words)", "setting": "[1]; [3]", "result": "non-reactive"}
    ]},
    {"smiles": "Cc1ccccc1", "note": "[Toluene]", "values": [
      {"measurement": "result in the GSH screen (in words)", "setting": "[1]; [3]", "result": "non-reactive"}
    ]},
    {"smiles": "ClC(Cl)Cl", "note": "[Chloroform]", "values": [
      {"measurement": "result in the GSH screen (in words)", "setting": "[1]", "result": "non-reactive"}
    ]},
    {"smiles": "C/C=C/C=O", "note": "[trans Crotonaldehyde]", "values": [
      {"measurement": "potential reactivity using the GSH reactivity screen", "setting": "[1]; [5]", "result": "R"},
      {"measurement": "result in the GSH screen (in words)", "setting": "[1]; [3]", "result": "reactive"}
    ]}
  ]
}
